From patent US8067447B2, “Modulators of glucocorticoid receptor, AP-1, and/or NF-κB activity and use thereof” (Bristol-Myers Squibb Company, priority 2006, dated 2011)
Like-named read-outs stand apart in the source and are kept apart here.

Key:
[1] = molecular target: T1, human glucocorticoid receptor (Homo sapiens, UniProt P04150); test: Glucocorticoid Receptor Binding Assay (I), fluorescence polarization competitor kit (Fluormone GS Red); conditions: purified human recombinant full-length GR 2 nM, 1 nM Fluormone GS Red, FP; read-out: GR (Ki, nM) (GR Binding Assay (I))
T1 construct: purified human recombinant full-length glucocorticoid receptor (2 nM); purchased Invitrogen Part #2893
T1 sequence (P04150 1-777): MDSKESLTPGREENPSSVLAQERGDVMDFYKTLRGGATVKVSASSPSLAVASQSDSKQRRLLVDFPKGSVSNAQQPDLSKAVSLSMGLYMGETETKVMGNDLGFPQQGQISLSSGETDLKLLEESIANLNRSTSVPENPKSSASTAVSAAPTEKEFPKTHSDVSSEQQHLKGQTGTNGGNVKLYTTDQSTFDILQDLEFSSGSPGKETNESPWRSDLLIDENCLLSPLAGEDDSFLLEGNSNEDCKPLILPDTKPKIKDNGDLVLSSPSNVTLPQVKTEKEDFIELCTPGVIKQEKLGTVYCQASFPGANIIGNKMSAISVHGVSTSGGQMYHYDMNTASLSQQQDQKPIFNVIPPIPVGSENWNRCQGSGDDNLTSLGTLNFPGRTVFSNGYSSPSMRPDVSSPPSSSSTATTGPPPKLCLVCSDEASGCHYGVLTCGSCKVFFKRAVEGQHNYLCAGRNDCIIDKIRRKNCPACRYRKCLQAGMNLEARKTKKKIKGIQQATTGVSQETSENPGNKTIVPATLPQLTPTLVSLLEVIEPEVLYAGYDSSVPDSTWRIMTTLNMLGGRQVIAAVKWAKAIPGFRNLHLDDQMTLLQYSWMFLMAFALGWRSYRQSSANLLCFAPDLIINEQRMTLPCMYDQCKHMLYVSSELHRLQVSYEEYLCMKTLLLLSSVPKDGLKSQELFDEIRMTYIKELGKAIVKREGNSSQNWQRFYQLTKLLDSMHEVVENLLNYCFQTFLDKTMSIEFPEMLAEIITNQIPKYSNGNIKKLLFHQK
Experimental: Briefly, purified human recombinant full-length glucocorticoid receptor (2 nM) was mixed with fluorescently labeled glucocorticoid (1 nM Fluormone GS Red) in the presence or absence of test compound. After two hour incubation at room temperature in the dark, the fluorescence polarization (FP) of the samples was measured. […] Test compounds were analyzed in the concentration range from 8.5E-05 μM to 5 μM.

[2] = tested on: AP-1 induced transcriptional activity; test: Cellular Transrepressional Assay (AP-1 luciferase reporter in A549 cells, PMA-activated); assay type: cell-based; conditions: A549 cells with 7x AP-1 luciferase reporter, 10 ng/ml PMA, read-out: AP-1 (EC50, nM) (Cellular Transrepression Assay)
Experimental: To measure the ability of test molecules to inhibit AP-1 induced transcriptional activity an A549 cell was utilized which was stably transfected with a plasmid containing 7× AP-1 DNA binding sites (pAP-1-Luc plasmid, Stratagene Co. La Jolla, Calif.) followed by the gene for luciferase. Cells were activated with 10 ng/ml of […] (PMA) plus or minus test molecules for 7 hours. After 7 hours a luciferase reagent was added to measure luciferase enzymatic activity in the cell. After a 10 minute incubation of luciferase reagent with cells, luminescence was measured in a TopCount luminescence counter. Repression of AP-1 activity was calculated as the percentage decrease in the signal induced by PMA alone. Test molecules were analyzed in the concentration range from 0.1 nM to 40 μM. EC50s were determined by using standard curve fitting methods such as Excel fit (Microsoft Co.).

Row | SMILES | Ki [1] [nM] | EC50 ([2]; Homo sapiens, A549, 7 h) [nM] | EC50 ([2]; 7 hours) [nM]
1 | COc1ccc(-n2ncc3cc(C(c4ccccc4)C(C)(C)C(=O)Nc4nncs4)ccc32)cc1 (stereo not drawn) [Example 83, 3-(1-(4-methoxyphenyl)-1H-indazol-5-yl)-2,2-dimethyl-3-phenyl-N-(1,3,4-thiadiazol-2-yl)propanamide] | 8.8 | 230 | –
2 | Cc1nc(NC(=O)C(C)(C)C(c2ccccc2)c2ccc3c(cnn3-c3ccc(F)cc3)c2)sc1C (stereo not drawn) [Example 24, N-(4,5-dimethylthiazol-2-yl)-3-(1-(4-fluorophenyl)-1H-indazol-5-yl)-2,2-dimethyl-3-phenylpropanamide] | 28 | > 10000 | –
3 | CC(C)(C(=O)Nc1nncs1)C(c1ccccc1)c1ccc2nn(CCCCO)cc2c1 (stereo not drawn) [Example 77, 3-(2-(4-hydroxybutyl)-2H-indazol-5-yl)-2,2-dimethyl-3-phenyl-N-(1,3,4-thiadiazol-2-yl)propanamide] | 23 | 951 | –
4 | COCCCn1cc2cc(C(c3ccccc3)C(C)(C)C(=O)Nc3nncs3)ccc2n1 (stereo not drawn) [Example 69, 3-(2-(3-methoxy-propyl)-2H-indazol-5-yl)-2,2-dimethyl-3-phenyl-N-(1,3,4-thiadiazol-2-yl)propanamide] | 84 | > 10000 | –
5 | O=C(CC(c1ccccc1)c1ccc2c(cnn2-c2ccc(F)cc2)c1)Nc1nncs1 (single isomer, unassigned) [136-enant B, 3-(1-(4-Fluorophenyl)-1H-indazol-5-yl)-3-phenyl-N-(1,3,4-thiadiazol-2-yl)propanamide] | 6 | – | 13
6 | O=C(Nc1nccs1)C1CC1(c1ccccc1)c1ccc2c(cnn2-c2ccc(F)cc2)c1 (stereo not drawn) [Example 98, Trans-2-(1-(4-fluorophenyl)-1H-indazol-5-yl)-2-phenyl-N-(thiazol-2-yl)cyclopropanecarboxamide] | 15 | – | 34
7 | CC(C)(C(=O)NS(=O)(=O)C(F)(F)F)C(c1ccccc1)c1ccc2c(cnn2-c2ccc(F)cc2)c1 (stereo not drawn) [Example 6, 3-(1-(4-fluorophenyl)-1H-indazol-5-yl)-2,2-dimethyl-3-phenyl-N-(trifluoromethylsulfonyl) propanamide] | 77 | > 10000 | –
8 | CC(C)(Cc1ccc2c(cnn2-c2ccc(F)cc2)c1)C(=O)Nc1nccs1 [Example 31, 3-(1-(4-Fluorophenyl)-1H-indazol-5-yl)-2,2-dimethyl-N-(thiazol-2-yl)propanamide] | 98 | > 10000 | –
9 | CC(C)(C(=O)Nc1nncs1)C(c1ccccc1)c1ccc2c(cnn2-c2ccccn2)c1 (stereo not drawn) [Example 80, 2,2-dimethyl-3-phenyl-3-(1-(pyridin-2-yl)-1H-indazol-5-yl)-N-(1,3,4-thiadiazol-2-yl)propanamide] | 8.1 | 127 | –
10 | Cn1ccc(NC(=O)C(C)(C)C(c2ccccc2)c2ccc3c(cnn3-c3ccc(F)cc3)c2)n1 (stereo not drawn) [Example 4, 3-(1-(4-fluorophenyl)-1H-indazol-5-yl)-2,2-dimethyl-N-(1-methyl-1H-pyrazol-3-yl)-3-phenylpropanamide] | 7 | 12 | –
11 | CC(C)(C(=O)Nc1nncs1)C(c1ccccc1)c1ccc2c(cnn2-c2ccccc2)c1 (stereo not drawn) [Example 87, 2,2-dimethyl-3-phenyl-3-(1-phenyl-1H-indazol-5-yl)-N-(1,3,4-thiadiazol-2-yl)propanamide] | 5 | 20 | –
12 | CC(C)(C(=O)NCCC(F)(F)F)C(c1ccccc1)c1ccc2c(cnn2-c2ccc(F)cc2)c1 (stereo not drawn) [Example 9, 3-(1-(4-fluorophenyl)-1H-indazol-5-yl)-2,2-dimethyl-3-phenyl-N-(3,3,3-trifluoropropyl)-propanamide] | 3.7 | 3060 | –
13 | CC(C)(C(=O)Nc1nncs1)C(c1ccccc1)c1ccc2nn(Cc3ccccc3)cc2c1 (stereo not drawn) [Example 73, 3-(2-benzyl-2H-indazol-5-yl)-2,2-dimethyl-3-phenyl-N-(1,3,4-thiadiazol-2-yl)propanamide] | 46 | > 10000 | –
14 | CCC(c1ccc2c(cnn2-c2ccc(F)cc2)c1)C(C)(C)C(=O)Nc1nccs1 (stereo not drawn) [Example 39, 3-(1-(4-Fluorophenyl)-1H-indazol-5-yl)-2,2-dimethyl-N-(thiazol-2-yl)pentanamide] | 9.8 | 87 | –
15 | CC(C)(C(=O)Nc1n[nH]cc1C#N)C(c1ccccc1)c1ccc2c(cnn2-c2ccc(F)cc2)c1 (stereo not drawn) [Example 16, N-(4-cyano-1H-pyrazol-3-yl)-3-(1-(4-fluorophenyl)-1H-indazol-5-yl)-2,2-dimethyl-3-phenylpropanamide] | 163 | > 10000 | –
16 | CC(C)(C(=O)Nc1nnn[nH]1)C(c1ccccc1)c1ccc2c(cnn2-c2ccc(F)cc2)c1 (stereo not drawn) [Example 14, 3-(1-(4-fluorophenyl)-1H-indazol-5-yl)-2,2-dimethyl-3-phenyl-N-(1H-tetrazol-5-yl)propanamide] | 17 | > 10000 | –
17 | CC(C)(C(=O)Nc1nccs1)C(c1ccccc1)c1ccc2[nH]ccc2c1 (stereo not drawn) [Example 107, 3-(1H-Indol-5-yl)-2,2-dimethyl-3-phenyl-N-(thiazol-2-yl)propanamide] | 7.8 | 193 | –
18 | CC(C)(C(=O)Nc1nccs1)C(c1ccccc1)c1ccc2[nH]ncc2c1 (stereo not drawn) [Example 29, 3-(1H-Indazol-5-yl)-2,2-dimethyl-3-phenyl-N-(thiazol-2-yl)propanamide] | 7.8 | 126 | –
19 | CC(C)(C(=O)Nc1nccs1)C(c1cc[n+]([O-])cc1)c1ccc2c(cnn2-c2ccc(F)cc2)c1 (stereo not drawn) [Example 37, 3-(1-(4-Fluorophenyl)-1H-indazol-5-yl)-2,2-dimethyl-3-(pyridin-4-N-oxide-yl)-N-(thiazol-2-yl)propanamide] | 301 | 3350 | –
20 | O=C(Nc1nccs1)C1CC1c1ccc2c(cnn2-c2ccc(F)cc2)c1 (stereo not drawn) [Example 103, 2-(1-(4-Fluorophenyl)-1H-indazol-5-yl)-N-(thiazol-2-yl)cyclopropanecarboxamide] | 248 | > 10000 | –
21 | CC(C)(C)CNC(=O)C(C)(C)C(c1ccccc1)c1ccc2c(cnn2-c2ccc(F)cc2)c1 (stereo not drawn) [Example 7, 3-(1-(4-fluorophenyl)-1H-indazol-5-yl)-2,2-dimethyl-N-neopentyl-3-phenylpropanamide] | 2.9 | 904 | –
22 | CC(C)n1cc2cc(C(c3ccccc3)C(C)(C)C(=O)Nc3nccs3)ccc2n1 (stereo not drawn) [Example 62] | 9 | 6150 | –
23 | CCOC(=O)Cc1csc(NC(=O)C(C)(C)C(c2ccccc2)c2ccc3c(cnn3-c3ccc(F)cc3)c2)n1 (stereo not drawn) [Example 28, ethyl 2-(2-(3-(1-(4-fluorophenyl)-1H-indazol-5-yl)-2,2-dimethyl-3-phenylpropanamido)thiazol-4-yl)acetate] | 20 | 647 | –
24 | COCCCn1ncc2cc(C(c3ccccc3)C(C)(C)C(=O)Nc3nncs3)ccc21 (stereo not drawn) [Example 71] | 28 | > 10000 | –
25 | CN1CCC(n2ncc3cc(C(c4ccccc4)C(C)(C)C(=O)Nc4nccs4)ccc32)CC1 (stereo not drawn) [Example 59, 2,2-dimethyl-3-(1-(1-methylpiper-idin-4-yl)-1H-indazol-5-yl)-3-phenyl-N-(thiazol-2-yl)propanamide] | 543 | > 10000 | –
26 | CC(C)(C(=O)Nc1nnc(C2CC2)s1)C(c1ccccc1)c1ccc2c(cnn2-c2ccc(F)cc2)c1 (stereo not drawn) [Example 21, N-(5-cyclopropyl-1,3,4-thiadiazol-2-yl)-3-(1-(4-fluorophenyl)-1H-indazole-5-yl)-2,2-dimethyl-3-phenylpropanamide] | 12 | 155 | –
27 | CC(C)(C(=O)Nc1nncs1)C(c1ccccc1)c1ccc2c(cnn2-c2ccc(Br)cc2)c1 (stereo not drawn) [Example 91, 3-(1-(4-bromophenyl)-1H-indazol-5-yl)-2,2-dimethyl-3-phenyl-N-(1,3,4-thiadiazol-2-yl)propanamide] | 29 | 956 | –
